Common to all, as to format: biochemical
Assay [1] has as its target T1, PI3Kα (Homo sapiens, UniProt P42336).
T1 construct: Full-length N-terminal; FLAG (N); host or cells: SF9 cells (baculovirus)
Put plainly: Inhibition of PI3K isoforms: PI3Kα (microfluidic electrophoresis kinase assay, PIP2/PS substrate). To be noted: p110α/p85α, ATP 90 μM; read-out: PI3Ka IC50. How it is done: The kinase substrate was prepared by mixing and sonicating fluorescently-labeled phosphatidylinositol 4,5-phosphate (PIP2) with phospho-L-serine (PS) at 1:20 ratio in 50 mM HEPES buffer pH7.5.
The kinase reactions were assembled in 384-well plates (Greiner) in a total volume of […] as follows. The kinase proteins were pre-diluted in an assay buffer comprising 50 mM HEPES, pH 7.5, 0.012% CHAPS, 1 mM DTT, 10 mM Na3VaO4, 10 mM 3-GP, 3 mM MgCl2, and 40 mM NaCl2, and dispensed into a 384-well plate (10 μL per well). Test compounds were serially pre-diluted in DMSO and added to the protein samples by acoustic dispensing (Labcyte Echo). The concentration of DMSO was equalized to 1% in all samples. All test compounds were tested at 12 concentrations. The control samples (0%-inhibition in the absence of inhibitor, DMSO only) and 100%-inhibition (in the absence of enzyme) were assembled in replicates of four and were used to calculate %-inhibition in the presence of test compounds. The reactions were initiated by addition of 10 μL of the PIP2/PS substrate supplemented with ATP. The final concentration of enzymes was 0.5 nM (PI3Kα), 1 nM (PI3Kβ), 10 nM (PI3Kγ), and 0.25 nM (PI3Kδ). The final concentration of ATP was 90 μM (PI3Kα), 60 μM (PI3Kβ), 100 μM (PI3Kγ), and 90 μM (PI3Kδ). The final concentration of PIP2/PS substrate was 1 μM (PIP2). The kinase reactions were allowed to proceed for 3 h at room temperature. Following incubation, the reactions were quenched by addition of 50 μL of termination buffer (100 mM HEPES, pH 7.5, 0.01% Triton X-100, 20 mM EDTA). Terminated plates were analyzed on a microfluidic electrophoresis instrument (Caliper LabChip® 3000, Caliper Life Sciences/Perkin Elmer). The change in the relative fluorescence intensity of the PI(4,5)P substrate and PI(3,4,5)P product peaks was measured. The activity in each test sample was determined as the product to sum ratio (PSR): P/(S+P), where P is the peak height of the product, and S is the peak height of the substrate. Percent inhibition (Pinh) was determined using the following equation:
Pinh=(PSR0% inh−PSRcompound)/(PSR0% inh−PSR100% inh)*100
in which PSRcompound is the product/sum ratio in the presence of compound, PSR0% inh is the product/sum ratio in the absence of compound, and the PSR100% inh is the product/sum ratio in the absence of the enzyme.

The target of assay [2] is T2, PI3Kδ (Homo sapiens, UniProt O00329).
T2 construct: Full-length N-terminal; GST (N); host or cells: SF9 cells (baculovirus)
T2 sequence (O00329 whole entry): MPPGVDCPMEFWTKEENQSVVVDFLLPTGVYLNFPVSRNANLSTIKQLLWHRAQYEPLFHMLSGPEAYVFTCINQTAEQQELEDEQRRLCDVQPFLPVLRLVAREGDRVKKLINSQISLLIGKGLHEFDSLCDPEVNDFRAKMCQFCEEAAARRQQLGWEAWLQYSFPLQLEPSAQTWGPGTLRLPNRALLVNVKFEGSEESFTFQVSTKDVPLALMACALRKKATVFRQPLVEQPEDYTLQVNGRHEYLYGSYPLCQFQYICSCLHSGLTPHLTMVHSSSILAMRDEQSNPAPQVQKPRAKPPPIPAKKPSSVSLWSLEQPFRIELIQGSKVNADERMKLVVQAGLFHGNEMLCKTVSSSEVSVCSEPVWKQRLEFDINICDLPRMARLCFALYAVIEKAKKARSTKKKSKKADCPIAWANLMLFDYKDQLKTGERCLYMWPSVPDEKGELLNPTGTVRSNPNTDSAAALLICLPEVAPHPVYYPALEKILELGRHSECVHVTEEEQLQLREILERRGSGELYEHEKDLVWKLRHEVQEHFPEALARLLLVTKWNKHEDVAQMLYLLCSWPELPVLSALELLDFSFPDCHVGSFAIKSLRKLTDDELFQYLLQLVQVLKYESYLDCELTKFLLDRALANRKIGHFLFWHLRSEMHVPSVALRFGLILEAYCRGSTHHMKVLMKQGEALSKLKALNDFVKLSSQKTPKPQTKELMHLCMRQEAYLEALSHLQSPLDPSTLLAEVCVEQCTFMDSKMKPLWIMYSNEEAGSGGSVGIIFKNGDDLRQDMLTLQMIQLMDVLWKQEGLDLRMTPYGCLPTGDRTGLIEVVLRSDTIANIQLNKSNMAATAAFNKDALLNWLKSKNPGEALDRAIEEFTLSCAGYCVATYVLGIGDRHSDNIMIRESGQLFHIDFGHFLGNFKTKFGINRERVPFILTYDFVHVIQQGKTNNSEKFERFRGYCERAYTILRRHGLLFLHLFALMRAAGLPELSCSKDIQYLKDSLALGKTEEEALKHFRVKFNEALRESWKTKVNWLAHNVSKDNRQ
T2 sequence (P27986 whole entry partner): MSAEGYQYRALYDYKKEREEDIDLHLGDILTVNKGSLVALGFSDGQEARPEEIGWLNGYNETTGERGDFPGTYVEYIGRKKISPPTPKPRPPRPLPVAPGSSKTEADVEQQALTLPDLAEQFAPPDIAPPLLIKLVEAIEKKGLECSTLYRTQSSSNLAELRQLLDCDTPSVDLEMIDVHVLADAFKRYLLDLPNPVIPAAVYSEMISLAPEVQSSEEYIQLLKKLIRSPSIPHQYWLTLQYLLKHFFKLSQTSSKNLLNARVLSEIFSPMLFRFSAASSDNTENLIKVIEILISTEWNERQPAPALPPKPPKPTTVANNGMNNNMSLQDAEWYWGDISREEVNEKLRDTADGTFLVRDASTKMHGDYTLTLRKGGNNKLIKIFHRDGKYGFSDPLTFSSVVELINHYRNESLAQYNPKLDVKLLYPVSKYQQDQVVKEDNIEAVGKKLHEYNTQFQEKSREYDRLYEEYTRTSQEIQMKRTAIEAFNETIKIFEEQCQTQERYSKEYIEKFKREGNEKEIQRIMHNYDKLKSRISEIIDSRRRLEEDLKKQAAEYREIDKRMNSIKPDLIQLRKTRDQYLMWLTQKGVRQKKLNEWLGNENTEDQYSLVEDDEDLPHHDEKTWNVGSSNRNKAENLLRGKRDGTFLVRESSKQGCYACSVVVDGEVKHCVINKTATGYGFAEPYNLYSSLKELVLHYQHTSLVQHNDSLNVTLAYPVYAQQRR
Put plainly: Inhibition of PI3K isoforms: PI3Kδ (microfluidic electrophoresis kinase assay, PIP2/PS substrate). To be noted: p110δ/p85α, ATP 90 μM; read-out: PI3Kd IC50. Here is the method: The kinase substrate was prepared by mixing and sonicating fluorescently-labeled phosphatidylinositol 4,5-phosphate (PIP2) with phospho-L-[…]:20 ratio in 50 mM HEPES buffer pH7.5. The kinase reactions were assembled in 384-well plates (Greiner) in a total volume of […] as follows. The kinase proteins were pre-diluted in an assay buffer comprising 50 mM HEPES, pH 7.5, 0.012% CHAPS, 1 mM DTT, 10 mM Na3VaO4, 10 mM 3-GP, 3 mM MgCl2, and 40 mM NaCl2, and dispensed into a 384-well plate (10 μL per well). Test compounds were serially pre-diluted in DMSO and added to the protein samples by acoustic dispensing (Labcyte Echo). The concentration of DMSO was equalized to 1% in all samples. All test compounds were tested at 12 concentrations. The control samples (0%-inhibition in the absence of inhibitor, DMSO only) and 100%-inhibition (in the absence of enzyme) were assembled in replicates of four and were used to calculate %-inhibition in the presence of test compounds. The reactions were initiated by addition of 10 μL of the PIP2/PS substrate supplemented with ATP. The final concentration of enzymes was 0.5 nM (PI3Kα), 1 nM (PI3Kβ), 10 nM (PI3Kγ), and 0.25 nM (PI3Kδ). The final concentration of ATP was 90 μM (PI3Kα), 60 μM (PI3Kβ), 100 μM (PI3Kγ), and 90 μM (PI3Kδ). The final concentration of PIP2/PS substrate was 1 μM (PIP2). The kinase reactions were allowed to proceed for 3 h at room temperature. Following incubation, the reactions were quenched by addition of 50 μL of termination buffer (100 mM HEPES, pH 7.5, 0.01% Triton X-100, 20 mM EDTA). Terminated plates were analyzed on a microfluidic electrophoresis instrument (Caliper LabChip® 3000, Caliper Life Sciences/Perkin Elmer). The change in the relative fluorescence intensity of the PI(4,5)P substrate and PI(3,4,5)P product peaks was measured. The activity in each test sample was determined as the product to sum ratio (PSR): P/(S+P), where P is the peak height of the product, and S is the peak height of the substrate. Percent inhibition (Pinh) was determined using the following equation: Pinh=(PSR0% inh-PSRcompound)/(PSR0% inh-PSR100% inh)*100 in which PSRcompound is the product/sum ratio in the presence of compound, PSR0% inh is the product/sum ratio in the absence of compound, and the PSR100% inh is the product/sum ratio in the absence of the enzyme. […] (Pinh versus compound concentration) were fitted by a four-parameter sigmoid dose-response model using XLfit software (IDBS).

The target in assay [3] is T3, Full length human recombinant PIKFYVE (Homo sapiens, UniProt Q9Y2I7).
T3 construct: Full length human recombinant PIKFYVE; purchased Carna Biosciences (Kobe, Japan); host or cells: baculovirus expression system
T3 sequence (Q9Y2I7 whole entry): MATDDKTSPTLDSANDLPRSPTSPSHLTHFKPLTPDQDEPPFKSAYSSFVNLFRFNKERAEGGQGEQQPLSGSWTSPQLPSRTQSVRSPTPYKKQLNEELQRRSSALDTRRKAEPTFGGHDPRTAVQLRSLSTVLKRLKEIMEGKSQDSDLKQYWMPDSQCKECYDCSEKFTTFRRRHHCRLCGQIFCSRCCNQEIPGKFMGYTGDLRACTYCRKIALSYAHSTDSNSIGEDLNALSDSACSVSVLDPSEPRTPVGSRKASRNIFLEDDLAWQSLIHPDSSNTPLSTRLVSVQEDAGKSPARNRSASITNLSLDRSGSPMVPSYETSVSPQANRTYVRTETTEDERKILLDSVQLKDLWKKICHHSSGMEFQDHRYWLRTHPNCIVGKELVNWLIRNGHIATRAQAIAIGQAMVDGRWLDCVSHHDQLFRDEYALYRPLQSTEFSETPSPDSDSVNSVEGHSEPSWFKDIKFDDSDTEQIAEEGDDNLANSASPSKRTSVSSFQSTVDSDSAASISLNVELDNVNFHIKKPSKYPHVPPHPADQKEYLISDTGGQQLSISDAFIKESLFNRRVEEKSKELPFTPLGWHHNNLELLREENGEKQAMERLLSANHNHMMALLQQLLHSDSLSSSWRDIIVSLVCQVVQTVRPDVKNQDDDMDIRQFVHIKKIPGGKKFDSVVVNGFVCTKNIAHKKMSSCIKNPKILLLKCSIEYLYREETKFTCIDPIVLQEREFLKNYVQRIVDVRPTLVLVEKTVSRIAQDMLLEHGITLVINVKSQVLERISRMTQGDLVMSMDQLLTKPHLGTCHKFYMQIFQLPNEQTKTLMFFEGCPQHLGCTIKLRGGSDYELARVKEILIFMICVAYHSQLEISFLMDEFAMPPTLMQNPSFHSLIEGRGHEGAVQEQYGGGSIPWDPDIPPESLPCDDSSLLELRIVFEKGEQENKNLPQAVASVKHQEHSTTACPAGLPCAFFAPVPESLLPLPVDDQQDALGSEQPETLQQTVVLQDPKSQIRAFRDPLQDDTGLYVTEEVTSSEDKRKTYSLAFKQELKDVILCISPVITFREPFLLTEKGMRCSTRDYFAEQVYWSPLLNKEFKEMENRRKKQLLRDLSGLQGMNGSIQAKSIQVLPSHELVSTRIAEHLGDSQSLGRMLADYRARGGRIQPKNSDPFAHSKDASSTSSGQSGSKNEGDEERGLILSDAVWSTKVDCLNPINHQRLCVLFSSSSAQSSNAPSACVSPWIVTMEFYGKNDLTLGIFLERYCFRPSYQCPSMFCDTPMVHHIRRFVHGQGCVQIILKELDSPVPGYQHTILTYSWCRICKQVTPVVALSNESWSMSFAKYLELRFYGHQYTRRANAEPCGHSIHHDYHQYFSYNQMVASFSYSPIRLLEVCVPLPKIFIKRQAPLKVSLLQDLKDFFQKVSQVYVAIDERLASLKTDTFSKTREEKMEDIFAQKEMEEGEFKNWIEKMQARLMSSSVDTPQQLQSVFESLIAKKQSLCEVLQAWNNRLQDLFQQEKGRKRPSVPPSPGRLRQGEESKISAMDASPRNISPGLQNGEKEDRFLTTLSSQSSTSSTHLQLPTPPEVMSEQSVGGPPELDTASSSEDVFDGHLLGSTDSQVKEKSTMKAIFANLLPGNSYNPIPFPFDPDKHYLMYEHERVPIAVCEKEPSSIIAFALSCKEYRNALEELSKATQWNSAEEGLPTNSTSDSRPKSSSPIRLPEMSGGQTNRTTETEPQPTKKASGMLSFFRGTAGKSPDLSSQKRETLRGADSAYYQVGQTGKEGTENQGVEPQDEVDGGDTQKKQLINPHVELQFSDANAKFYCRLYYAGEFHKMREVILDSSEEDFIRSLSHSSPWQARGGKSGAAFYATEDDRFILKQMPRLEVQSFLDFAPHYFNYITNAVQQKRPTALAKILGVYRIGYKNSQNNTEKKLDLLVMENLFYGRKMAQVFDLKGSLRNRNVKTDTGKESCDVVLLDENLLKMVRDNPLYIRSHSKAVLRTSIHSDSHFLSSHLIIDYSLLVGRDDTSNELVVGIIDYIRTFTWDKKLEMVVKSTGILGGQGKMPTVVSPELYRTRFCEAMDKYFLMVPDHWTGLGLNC
Put plainly: Inhibition of PIKfyve (microfluidic electrophoresis kinase assay, PI3P/PS substrate). To be noted: 12 concentrations. The procedure, abridged:
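GST-tagged full-length human PIKFYVE (baculovirus; 2 nM) with fluorescent PI3P/PS (1 μM PI3P) and […] in pH 7.5 HEPES with Mg2+/Mn2+, 1% DMSO, 3 h at room temperature. PI(3,5)P product/substrate ratio read by microfluidic electrophoresis; 12-point % inhibition versus no-enzyme and DMSO controls.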

The text below walks through data of patent publication US20230146395A1, “Substituted Pyrimidines and Uses Thereof” (Verge Analytics, Inc., priority 2020, published 2023).

As a reminder, the IC50 is the concentration needed to halve the response being measured.

Structures are written as SMILES.

T1 sequence (P42336 whole entry): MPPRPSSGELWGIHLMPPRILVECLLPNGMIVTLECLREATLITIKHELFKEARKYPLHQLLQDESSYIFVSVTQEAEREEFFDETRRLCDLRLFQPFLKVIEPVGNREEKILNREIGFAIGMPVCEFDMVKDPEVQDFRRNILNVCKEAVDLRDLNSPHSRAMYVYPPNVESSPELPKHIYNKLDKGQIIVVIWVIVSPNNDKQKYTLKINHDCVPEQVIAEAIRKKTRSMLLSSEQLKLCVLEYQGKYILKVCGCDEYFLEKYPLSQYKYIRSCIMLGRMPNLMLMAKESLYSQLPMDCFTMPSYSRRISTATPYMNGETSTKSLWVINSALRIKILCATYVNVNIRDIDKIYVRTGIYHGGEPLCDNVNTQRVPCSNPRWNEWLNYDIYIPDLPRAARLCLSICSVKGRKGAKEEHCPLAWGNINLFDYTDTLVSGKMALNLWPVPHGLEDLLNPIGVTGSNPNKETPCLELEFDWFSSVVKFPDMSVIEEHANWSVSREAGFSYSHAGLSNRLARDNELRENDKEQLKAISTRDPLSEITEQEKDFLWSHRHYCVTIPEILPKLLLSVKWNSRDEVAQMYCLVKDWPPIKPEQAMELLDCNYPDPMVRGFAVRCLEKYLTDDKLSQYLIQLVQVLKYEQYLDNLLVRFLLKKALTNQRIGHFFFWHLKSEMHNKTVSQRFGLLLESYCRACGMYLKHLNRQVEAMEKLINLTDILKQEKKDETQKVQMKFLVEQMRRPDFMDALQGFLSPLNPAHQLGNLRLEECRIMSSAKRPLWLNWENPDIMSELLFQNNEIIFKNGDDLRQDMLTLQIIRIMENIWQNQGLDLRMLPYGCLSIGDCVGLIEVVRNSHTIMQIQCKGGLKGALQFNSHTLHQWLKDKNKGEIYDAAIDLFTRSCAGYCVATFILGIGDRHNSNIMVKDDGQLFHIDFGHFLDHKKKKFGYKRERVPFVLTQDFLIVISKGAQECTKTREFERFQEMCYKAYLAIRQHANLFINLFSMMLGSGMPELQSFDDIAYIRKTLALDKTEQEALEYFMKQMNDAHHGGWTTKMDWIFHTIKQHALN
T1 sequence (P27986 whole entry partner): as the sequence (P27986 whole entry partner) above

`c1cc(-c2cc3nc(Nc4cc(C5CCC5)n[nH]4)nc(N4CCOCC4)c3o2)ccn1` [Compound 70, N-(5-cyclobutyl-1H-pyrazol-3-yl)-4-morpholino-6-(pyridin-4-yl)furo[3,2-d]pyrimidin-2-amine, hydrogen chloride]: the IC50 in assay [1] is 4.14 µM; in assay [2], 164 nM; in assay [3], 0.142 µM.
For `CNC(=O)c1cc2nc(Nc3cc(C4CCC4)n[nH]3)nc(N3CCOCC3)c2o1` [Compound 80, 2-((5-cyclobutyl-1H-pyrazol-3-yl)amino)-N-methyl-4-morpholinofuro[3,2-d]pyrimidine-6-carboxamide, hydrogen chloride], in that order: 5.52 µM, 454 nM and 5.5 µM.
The like results for `CNC(=O)c1cc2nc(Nc3cc(CC4CCCC4)n[nH]3)nc(N3CCOCC3)c2o1` [Compound 84, 2-((5-(cyclopentylmethyl)-1H-pyrazol-3-yl)amino)-N-methyl-4-morpholinofuro[3,2-d]pyrimidine-6-carboxamide, hydrogen chloride] were, in that order, 4.53 µM, 218 nM and at least 20 µM.
